From patent publication US9779901B2, “High temperature material compositions for high temperature thermal cutoff devices” (Therm-O-Disc, Incorporated, priority 2008, dated 2017)
Where a name gives a salt, the structure may show the parent alone. Read-outs that look alike come from different tables or passages of the source.

Assays:
[1] = estimated melting point temperature ranges of candidate organic compounds (Table 2); some compounds have several values, partly in parentheses, because analytic techniques differ; cited from earlier work

Row | SMILES | Melting Point [1] | Melting Point
1 | c1cc2n[nH]nc2cn1 [Example 50] | 246-247° ° C. | 246 to 247 °C
2 | NC(=O)c1c2ccccc2nc2ccccc12 [Example 178] | 263-264° ° C. | 263 to 264 °C
3 | CN1C(=O)C(=NNC(N)=S)c2ccccc21 [Example 43] | 245° ° C. | 
4 | Cc1nc2c(C)c(C)c(C)c(C)c2[nH]1 [Example 209] | 265° ° C. | 265 °C
5 | Nc1ccc2ccccc2c1-c1c(N)ccc2ccccc12 [Example 25] | 242.5-243° ° C. | 242.5 to 243 °C
6 | CN/C(=N\c1ccc(C2=NNC(=O)CC2C)cc1)NC#N (centres unmarked) [Example 180] | 264-265° ° C. | 
7 | Nc1nnc(-c2ccccc2)o1 [Example 9] | 241-243° ° C. | 
8 | CCC(N)Cc1cc(OC)c(C)cc1OC (centres unmarked) [Example 46] | 245-246.5° ° C. | 
9 | O=c1cc2[nH]c3ccccc3oc-2cc1=O [Example 185] | 264-265° ° C. | 264 to 265 °C
10 | O=c1nc(Cc2ccccc2)[nH]c2ccccc12 [Example 102] |  | 254 to 256 °C
11 | NNc1nnc(Cc2ccncc2)c2ccccc12 [Example 149] | 261-264° ° C. | 261 to 264 °C
12 | N#Cc1ccc2c(=O)c3ccccc3sc2c1 [Example 110] | 255-256° ° C. | 255 to 256 °C
13 | NC1=NCCC(CC(N)C(=O)O)N1 (centres unmarked) [Example 124] | 258-259° ° C. | 258 to 259 °C
14 | c1nc2nc3nc[nH]cc3n2n1 [Example 77] | 250° ° C. | 250 °C
15 | CC1(C)CNC(=O)NC1 [Example 107] | 255-257° ° C. | 255 to 257 °C
16 | OCC(CO)(CO)CO [Example 144] | 260° ° C. | 
17 | CC(=O)Oc1c(C)c(C)c2c(c1C)CCC(C)(CCN(C)C)O2 (centres unmarked) [Example 172] | 263-270° ° C. | 
18 | O=C1C(=O)c2cccc3cccc1c23 [Example 27] | 243-245° ° C. | 
19 | Nc1ccc2c(c1)[nH]c1ccccc12 [Example 47] | 245-247° ° C. | 245 to 247 °C
20 | CC(=O)Nc1cnn2c(C)nc3ccccc3c12 [Example 125] | 258-260° ° C. | 258 to 260 °C
21 | c1cnc2[nH]cnc2n1 [Example 128] | 258-259° ° C. | 258 to 259 °C
22 | O=c1c2ccccc2[nH]c2c([N+](=O)[O-])cccc12 [Example 164] | 262° ° C. | 262 °C
23 | Nc1nnc2ccccn12 [Example 48] | 245-247° ° C. | 245 to 247 °C

Row | SMILES | Melting Point [1] | Melting Point
24 | O=[N+]([O-])c1ccc(NN=Cc2ccccc2Cl)cc1 [Example 73] | 249° ° C. | 249 °C
25 | COc1ncnc2nc[nH]c12 [Example 161] | 262-263° ° C. | 262 to 263 °C
26 | Cc1ccc2c(c1)[nH]c1ccccc12 [Example 133] | 259° ° C. | 
27 | Oc1cccc2nc3ccccc3cc12 [Example 84] |  | 230 °C
28 | CN[C@H]1CC[C@@H](c2ccccc2)c2ccccc21 (as salt: hydrochloride) [Example 6] |  | 241 to 242 °C
29 | CCCOc1ccccc1-c1nc2nn[nH]c2c(=O)[nH]1 [Example 1] | 241° ° C. | 
30 | COC(=O)c1cc2c(cn1)[nH]c1ccccc12 [Example 153] | 261-262° ° C. | 
31 | O=C(Nc1ccccc1)C(=O)Nc1ccccc1 [Example 91] | 252-254° ° C. | 
32 | O=C1C(=O)c2cccnc2-c2ncccc21 [Example 126] | 258° ° C. | 
33 | O=C(Nc1ccccc1)Nc1ccccc1 [Example 49] | 246-248° ° C. | 
34 | O=c1ccc2[nH]cc(C3=CCNCC3)c2[nH]1 [Example 66] | 248° ° C. | 
35 | CC1(C)Oc2ccc(C#N)cc2[C@@H](N2CCCC2=O)[C@@H]1O [Example 18] | 242-244° ° C. | 
36 | NC(=O)c1cccc2nc3ccccc3nc12 [Example 42] | 245-246° ° C. | 
37 | O=[N+]([O-])c1c2ccccc2c2ccc3cccc4ccc1c2c43 [Example 111] | 255-256° ° C. | 
38 | Cc1c(C)c2cccnc2c2ncccc12 [Example 195] | 265-266° ° C. | 
39 | c1ccc(-c2c3ccccc3c(-c3ccccc3)c3ccccc23)cc1 [Example 54] | 246-248° ° C. | 
40 | NC1=CC(=O)c2ncccc2C1=O [Example 131] | 258-260° ° C. | 
41 | Nc1ccc(N=Nc2ccc(N)cc2)cc1 [Example 81] | 250° ° C. | 
42 | Nc1ccc(S(=O)(=O)Nc2cnc3ccccc3n2)cc1 [Example 58] | 247-248° ° C. | 
43 | c1ccc2c(C(c3c[nH]c4ccccc34)c3c[nH]c4ccccc34)c[nH]c2c1 [Example 38] | 244-246° ° C. | 
44 | CC1NCCc2c1[nH]c1cc(O)ccc21 (centres unmarked) (as salt: hydrochloride) [Example 100] |  | 254 to 255 °C
45 | CC(C)C(=O)OC1C[C@H]2CC[C@@H](C1)N2C (some centres unmarked) [Example 14] |  | 242 °C
46 | Cc1ccc2cc3ccc(C)cc3cc2c1 [Example 7] | 241° ° C. | 

Row | SMILES | Melting Point [1] | Melting Point
47 | CCCC1C(=O)N2C(N(C)C)=Nc3ccc(C)cc3N2C1=O (centres unmarked) [Example 62] | 247-248° ° C. | 
48 | O=C1C2C(c3ccccc3)NC(c3ccccc3)C1C(c1ccccc1)NC2c1ccccc1 (centres unmarked) [Example 106] | 255-256° ° C. | 
49 | CC(C)c1nc2nc(N)nc(N)c2nc1C(C)C [Example 55] | 246° ° C. | 
50 | CN(C)c1ncnc2nc[nH]c12 [Example 89] | 251-253° ° C. | 
51 | COc1ccc(-c2cc(=O)c3ccc(O)cc3o2)cc1 [Example 196] | 265-267° ° C. | 
52 | Nc1nc(N)nc(Cc2ccccc2)n1 [Example 67] |  | 248 °C
53 | c1ccc2cc3c(ccc4cc5ccccc5cc43)cc2c1 [Example 123] |  | 257 °C
54 | Nc1cc(N)nc(N)n1 [Example 70] | 249-251° ° C. | 
55 | N#CC(CCN1CCC(C(=O)ON2C(=O)CCC2=O)(c2ccccc2)CC1)(c1ccccc1)c1ccccc1 [Example 17] | 242-244° ° C. | 
56 | Cl.c1ccc(N=C(Nc2ccccc2)Nc2ccccc2)cc1 [Example 3] | 241° ° C. | 
57 | O=C1C=CC=CC1=C1Nc2ccccc2N1 [Example 15] | 242° ° C. | 
58 | Oc1cc(-c2ccccc2)nc2ccccc12 [Example 114] | 255-257° ° C. | 
59 | COc1ccc2nc(S)[nH]c2c1 [Example 170] | 263-264° ° C. | 
60 | O=C1CN(N=C/C=C/c2ccc([N+](=O)[O-])o2)C(=O)N1 [Example 151] | 261° ° C. | 
61 | C[C@]12CC[C@@H]3c4ccc(O)cc4C=C[C@H]3[C@@H]1CCC2=O [Example 186] | 264-265° ° C. | 
62 | Nc1nc2ccc([N+](=O)[O-])cc2s1 [Example 97] | 253° ° C. | 
63 | CC(=O)[C@H]1CC[C@H]2[C@@H]3CCc4cc(O)ccc4[C@H]3CC[C@]12C [Example 65] | 247-249° ° C. | 
64 | COc1nc(C)nc(N)n1 [Example 135] | 259-261° ° C. | 
65 | c1cc(-c2sc(-c3ccncc3)c(-c3ccncc3)c2-c2ccncc2)ccn1 [Example 116] | 256-258° ° C. | 
66 | CN[C@H]1CC[C@@H](c2ccccc2)c2ccccc21 [Example 6] | 241-242° ° C. | 
67 | Oc1ccc2cccc(O)c2n1 [Example 146] | 260° ° C. | 
68 | N#Cc1cncnc1N [Example 104] | 254-256° ° C. | 
69 | Cc1ccc2cc3cc(C)ccc3cc2c1 [Example 80] |  | 250 °C

Row | SMILES | Melting Point [1] | Melting Point
70 | Nc1cccc2c1C(=O)c1ccccc1C2=O [Example 96] | 253-254° ° C. | 
71 | Cn1c(=O)c2[nH]cnc2n(C)c1=O [Example 179] | 264° ° C. | 
72 | Cc1cc(C)c(C#N)c(=S)[nH]1 [Example 134] | 259-260° ° C. | 
73 | OC1C2CC3CC(C2)CC1C3 (centres unmarked) [Example 140] | 260-265° ° C. | 
74 | Cn1c(=S)c2c(ncn2C)n(C)c1=O [Example 52] | 246-247° ° C. | 
75 | c1ccc(Nc2ccc(-c3ccc(Nc4ccccc4)cc3)cc2)cc1 [Example 32] | 244-245° ° C. | 
76 | [H]/N=C(\N/C(=N/[H])Nc1ccc(Cl)cc1)NC(C)C [Example 30] | 244-245° ° C. | 
77 | Oc1nc2ccccc2nc1-c1ccccc1 [Example 64] | 247° ° C. | 
78 | Nc1nc(N)c2ccccc2n1 [Example 78] | 250-252° ° C. | 
79 | Cc1cc2cc3ccccc3cc2cc1C [Example 93] | 252° ° C. | 
80 | NC1=CC(=O)c2cccnc2C1=O [Example 177] | 263° ° C. | 
81 | Cn1c(=O)c(=O)n(C)c2ccccc21 [Example 120] | 256-258° ° C. | 
82 | CC(=O)Oc1c(C)c(C)c2c(c1C)CCC(C)(CCN(C)C)O2 (centres unmarked) (as salt: hydrochloride) [Example 172] |  | 263 to 270 °C
83 | N#Cc1cc(C#N)cc(C#N)c1 [Example 157] | 261-263° ° C. | 
84 | COc1cccc2c1CCCC2N (centres unmarked) [Example 76] | 249-250° ° C. | 
85 | Cc1ccc(NC(=O)Nc2ccc(C)cc2)cc1 [Example 167] | 262-263° ° C. | 
86 | N#CC(CCN1CCC(C(=O)ON2C(=O)CCC2=O)(c2ccccc2)CC1)(c1ccccc1)c1ccccc1 (as salt: hydrochloride) [Example 17] |  | 242 to 244 °C
87 | NC(=O)c1ccc(Oc2ccc(C(N)=O)cc2)cc1 [Example 193] | 265° ° C. | 
88 | Nc1ccc2nc(N)nc(N)c2c1 [Example 109] | 255-258° ° C. | 
89 | C[C@]12CCC(=O)C[C@H]1CC[C@@H]1[C@@H]2CC[C@]2(C)[C@@H](c3ccc(=O)oc3)CC[C@]12O [Example 16] | 242-245° ° C. | 
90 | CCCN(CCC)CCc1cccc2c1CC(=O)N2 [Example 2] | 241-243° ° C. | 
